# Laboratory results: US20230277553A1, “THERAPEUTIC COMPOSITION OF CURE-PRO COMPOUNDS FOR TARGETED DEGRADATION OF BET DOMAIN PROTEINS, AND METHODS OF MAKING AND USAGE” (CORNELL UNIVERSITY, priority 2020, published 2023)
# “Also recorded” adds a separate entry of the source.
# Key:
# BRD4 [1] = molecular target: T1, BRD4 (Homo sapiens, UniProt O60885); assay: CURE-PRO-mediated BRD4 degradation with VHL ligands, Western blot, MCF7 cells; type: cell-based; set-up: endogenous in cells; conditions: MCF7, 24 h, 1:1 with 8305, 100 nM-10 μM
# Description: (§1) All cell lines were purchased from ATCC or DSMZ and grown at 37° C. with 5% CO2. Human HeLa cells were cultured in complete growth medium (Dulbecco's modified Eagle's medium (DMEM) supplemented with 10% FBS); MCF7 cells were cultured in complete growth medium (Dulbecco's modified Eagle's medium (DMEM) supplemented with 10% FBS and 0.01 mg/ml human recombinant insulin (Sigma Aldrich); Namalwa and MOLM-13 cells were cultured in complete growth medium (RPMI 1640 medium supplemented with 10% FBS); MV-4-11 were cultured in complete growth medium (Iscove's Modified Dulbecco's medium, supplemented with 10% FBS); HCT116 cells were cultured in complete growth medium (McCoy's 5a Medium supplemented with 10% FBS). For cellular degradation of BRD4 studies, cells were seeded in a 12-well plate at 70-80% confluency, allowed to attach overnight, and incubated with the indicated compounds for the indicated time. When indicated, a 15-minute pretreatment with 10 μM pomalidomide, 10 μM VHL298, 10 μM Nutlin3a, 1 μM MG-132 or 1 μM Carfilzomib was performed before the addition of CURE-PROs. For washout studies, after CURE-PRO treatment, media was aspirated and incubated with complete medium for the indicated time before lysis.
# HeLa, MCF7, or HCT116 cells (2.5-3×10^6) were treated for 24 hours with the indicated compounds solubilized in DMSO. The cells were washed in ice-cold PBS and were then lysed in RIPA lysis buffer (150 mM NaCl, 5 mM EDTA, 1% NP-40, 0.5% sodium deoxycholate, 0.1% SDS, 50 mM Tris, pH 8.0.) with Roche protease inhibitor complete cocktail and phosphatase inhibitors (10 mM sodium fluoride, 10 mM sodium pyrophosphate, 1 mM sodium orthovanadate and 20 mM β-glycerophosphate). The total protein concentrations were determined by Bradford Protein Assay and 10-20 μg of protein was loaded onto 4-15% Tris-Glycine gradient gels (Biorad). After standard gel electrophoresis, the separated proteins were transferred to PVDF membrane by wet transfer. The immunoblots were then blocked for 1 hour in 5% skim milk in TBST or 5% BSA in TBST, according to manufacturer's instructions, before an overnight incubation at 4° C. with indicated antibodies and membranes. Membranes were then incubated with the appropriate horseradish peroxidase-conjugated secondary antibodies (1:5,000 dilution) for 1 h at room temperature and the bands were visualized using the Clarity Max Western ECL Substrate (Biorad) and the ChemiDoc Imaging System (Biorad). Signal was detected with ECL Western Blotting Substrate (Pierce) and X-ray film processed with a Konica SRX-101 X-ray film processor or captured by Bio-Rad's Chemidoc Imaging system.
# MCF7 cells (3×10^6) were treated for 24 h with the compounds solubilized in DMSO. Compounds were added at 100 nM-10 μM. […]
# BRD4 [2] = molecular target: T1, BRD4; assay: CURE-PRO-mediated BRD4 degradation with VHL ligands, WES (ProteinSimple), MCF7 cells; type: cell-based; set-up: endogenous in cells; conditions: MCF7, 10 μM each
# Description: as §1
# WES Simple analysis was performed on WES system (ProteinSimple-Biotechne) according to the manufacturer's instructions. Total protein concentrations of cell lysates were determined by the Pierce BCA kit (Thermo Fisher). 3 μL of 0.3 μg/μL of the protein lysate was loaded onto a 12- to 230-kDa WES assay plate (ProteinSimple) where 300 nL sample was withdrawn through a capillary, subjected to electrophoretic separation of proteins by size, and followed by the simultaneous, HRP-based detection of proteins using the Anti-Rabbit Detection Module (Proteinsimple: #DM-001). The electropherograms were checked then the automatic peak detection was manually corrected if it was required.
# MCF7 cells (3×10^6) were treated for 4-24 hours continually (FIG. 72), or treated for 4h, washed and incubated for a further 4-24 h with the compounds solubilized in DMSO. Compounds were added at 10 μM each. Cells were washed, lysed, and clarified by centrifugation. The total protein concentration was quantified by the BCA method (ThermoFisher Sciences). Standardized protein samples were electrophoresed and imaged as described in the WES Proteinsimple section above. FIG. 69 depicts the CURE-PRO-mediated BRD4 degradation for the BRD-E50 monomer, and VHL ligand, 8305.
# MCF7 cells (3×10^6) were treated for 24 hours with the compounds solubilized in DMSO. CURE-PRO monomers were added at 10 μM each and the proteasomal inhibitors at 1 μM. Standardized protein samples were electrophoresed and imaged as described in the WES Proteinsimple section above. FIGS. 73 and 75 depicts the dependence of the proteasome for CURE-PRO-mediated BRD4 degradation.
# MCF7 cells (3×10^6) were treated for 24 hours with the compounds solubilized in DMSO. CURE-PRO monomers were added at 10 μM. FIG. 74 depicts the CURE-PRO-mediated BRD4 degradation for the BRD-E50 monomer, and VHL ligand, 8305 combined in a 1:1 ratio after 24 h.
structure (smiles),measurement,setting,value
"CCNC(=O)C[C@@H]1N=C(c2ccc(Cl)cc2)c2cc(OCCCCC(=O)Nc3cccc(B(O)O)c3)ccc2-n2c(C)nnc21 [BRD-E20, (3-(5-(((4S)-6-(4-chlorophenyl)-4-(2-(ethylamino)-2-oxoethyl)-1-methyl-4H-benzo[f][1,2,4]triazolo[4,3-a][1,4]diazepin-8-yl)oxy)pentanamido)phenyl)boronic acid]","BRD4 degradation, with VHL ligand 8305 (Western blot)",BRD4 [1],there is degradation of BRD4
same,"BRD4 degradation, with VHL ligand 8304 (WES)",BRD4 [2],failed to induce BRD4 degradation
same,"BRD4 degradation, with VHL ligand 8305 (WES)","BRD4 [2]; 1:1 with 8305, 4-24 h, with washout where stated",caused BRD4 degradation; also recorded: marked BRD4 degradation
